Legend:
[1] = target: T1, HIV protease (Human immunodeficiency virus type 1 group M subtype B, UniProt P04585); assay: biochemical; format: biochemical; settings: Table 21; above-described enzyme assay
T1 construct: HIV protease is diluted in the assay buffer to a final enzyme concentration of 12.3 nanomolar, based on a molecular weight of 10,780
Description: The enzyme method is described below. […] The positive control is MVT-101 (Miller, M. et al, Science, 246, 1149 (1989)]. The assay conditions are as follows:
20 mM sodium phosphate, pH 6.4
The above described substrate is dissolved in DMSO, then diluted 10 fold in assay buffer. Final substrate concentration in the assay is 80 μM.
The final concentration of DMSO is 14% and the final concentration of glycerol is 18%. The test compound is dissolved in DMSO and diluted in DMSO to 10× the test concentration; 10 μl of the enzyme preparation is added, the materials mixed and then the mixture is incubated at ambient temperature for 15 minutes. The enzyme reaction is initiated by the addition of 40μl of substrate. The increase in fluorescence is monitored at 4 time points (0, 8, 16 and 24 minutes) at ambient temperature. Each assay is carried out in duplicate wells.

[2] = test system: HIV-1 in CEM cells; assay: HIV inhibition assay of acutely infected CEM cells (tetrazolium/MTT colorimetric), antiviral efficacy; format: cell-based; settings: Human immunodeficiency virus 1, CCRF-CEM, 168 h
Source text: (§1) Methods, 20, 309-321 (1988).
(§2) [table 42: the next 8 blocks are its lines as printed, fixed-width]

[3] = in vitro; settings: human
Source text: as §1, §2

Row | SMILES | IC50 [1] | EC50 [2] | CC50 at 168 h ([3]; cem cells) | CC50 at 168 h [3]
1 | CCCN(C[C@@H](O)[C@H](Cc1ccccc1)NC(=O)[C@H](CC(N)=O)NC(=O)OCc1ccccc1)S(=O)(=O)c1ccccc1 [Example 7] | 3 nM | 25 nM | 39 nM | 
2 | COc1ccc(S(=O)(=O)N(CC(C)C)C[C@@H](O)[C@H](Cc2ccccc2)NC(=O)OCc2cccnc2)cc1 [Example 17] |  | 5 nM |  | 59000 nM
3 | COc1ccc(S(=O)(=O)N(CC(C)C)C[C@@H](O)[C@H](Cc2ccccc2)NC(=O)OCc2ccncc2)cc1 [Example 22] |  | 18 nM |  | 31000 nM
4 | COc1ccc(S(=O)(=O)N(CC(C)C)C[C@@H](O)[C@H](Cc2ccccc2)NC(=O)OCc2ccc[n+]([O-])c2)cc1 [Example 25] |  | 120 nM |  | 167000 nM
5 | COc1ccc(S(=O)(=O)N(CC(C)C)C[C@@H](O)[C@H](Cc2ccccc2)NC(=O)OC(C)(C)C)cc1 [Example 27] |  | 177 nM | 300000 nM | 
6 | COc1ccc(S(=O)(=O)N(CC(C)C)C[C@@H](O)[C@H](Cc2ccccc2)NC(=O)c2ccccc2)cc1 [Example 28] |  | 76 nM |  | 213000 nM
7 | COc1ccc(S(=O)(=O)N(CC(C)C)C[C@@H](O)[C@H](Cc2ccccc2)NC(=O)c2ccccc2C)cc1 [Example 29] |  | 105 nM |  | 196000 nM
8 | COc1ccc(S(=O)(=O)N(CC(C)C)C[C@@H](O)[C@H](Cc2ccccc2)NC(=O)c2ccccc2Cl)cc1 [Example 30] |  | 154 nM |  | 154000 nM
9 | COc1ccc(S(=O)(=O)N(CC(C)C)C[C@@H](O)[C@H](Cc2ccccc2)NC(=O)c2c(C)cccc2C)cc1 [Example 32] |  | 98 nM |  | 17000 nM
